Consider 3 molecules from patent publication US20070178523A1, “Novel druggable regions in set domain proteins, and methods of using the same” (Emory University, priority 2002, published 2007).

“Also recorded” adds a separate entry of the source.

The target of assay [1] is T1, DIM-5 (Neurospora crassa, UniProt Q8X225). The settings on record: when EDTA completely abolished DIM-5 activity.
Procedure: To remove zinc bound to EDTA, the protein was either dialyzed (Exp1) or subjected to gel filtration chromatography (Exp2) against 20 mM glycine (pH 9.8), 5% glycerol, 0.5 mM DTT and 1 mM EDTA.
One sample of untreated and two samples of EDTA treated DIM-5 protein (about 2 ml of 2 mg/ml each) was analyzed for the presence of 20 elements on a Thermo Jarrell-Ash Enviro 36 ICAP analyzer at the Chemical Analysis Laboratory of the University of Georgia at Athens. In order to calculate the molar ratio of Zn to protein, the precise concentration of the untreated DIM-5 protein was determined by amino acid analysis (averaging two independent measurements) performed at the Keck Facilities at Yale University. The extinction coefficient (29,559 M^−1 cm^−1) derived from the amino acid analysis was used to estimate the protein concentration of the EDTA-treated samples.
In assay [2] the target is T1, DIM-5. The assay is described as follows: Methyl transfer (HKMT) activity assay. The assay is classed as biochemical, N. crassa. More on the design: A segment of the wild-type dim-5 ORF, including amino acid residues 17-318, was amplified; GST (N, cleaved yes); made in house; host or cells: E. coli BL21(DE3) Codon plus RIL carrying pXC379 (pGEX2T). The settings on record: for DIM-5 activity after incubation with metal chelator: incubation of metal chelator with DIM-5 protein. On the procedure: The activity of the DIM-5 was assayed in a 20 μl reaction containing 50 mM glycine (pH 9.8), 2 mM DTT, 40-80 μM unlabelled AdoMet (Sigma), 0.5 μCi [methyl-^3H]AdoMet (78 Ci/mmol, NEN NET155H), 0.25-0.5 μg of DIM-5 protein, and 2-5 μg histones (calf thymus histones Sigma H4524, Roche 223565, or recombinant chicken erythrocyte histones, a gift from Dr. V. Ramakrishnan). The reaction was incubated at room temperature for 10-15 min and methylation was analyzed either by SDS-PAGE and fluorography, or by precipitation with 20% TCA, filtration (Milipore GF/F filter), washing and liquid scintillation counting. Under these conditions, DIM-5 activity was linearly related to reaction time and amount of enzyme and AdoMet and histone were saturating. For some reason, the relatively crude Sigma H4524 histone preparations generally gave 2-4 fold higher incorporation than either the Roche preparations or the recombinant histones.

Assay [3] addresses T1, DIM-5. Kind of assay: AdoMet-binding assay by UV crosslinking. More on the design: A segment of the wild-type dim-5 ORF, including amino acid residues 17-318, was amplified; GST (N, cleaved yes); made in house; host or cells: E. coli BL21(DE3) Codon plus RIL carrying pXC379 (pGEX2T); species or system N. crassa. The settings on record: incubation of metal chelator with DIM-5 protein. The method, then: Twenty μl of purified DIM-5 protein (2-5 μg) was incubated with 0.5 μCi of [methyl-^3H]AdoMet (78 Ci/mmol, NEN NET155H) overnight at 4° C. Samples were added to a 96-well plate on ice and placed 8 cm from an inverted UV transilluminator (VWR, 302 nm) for 1 hr. The protein was then separated by SDS-PAGE, stained with Coomassie and subjected to fluorography.

T1 sequence (Q8X225 30-331): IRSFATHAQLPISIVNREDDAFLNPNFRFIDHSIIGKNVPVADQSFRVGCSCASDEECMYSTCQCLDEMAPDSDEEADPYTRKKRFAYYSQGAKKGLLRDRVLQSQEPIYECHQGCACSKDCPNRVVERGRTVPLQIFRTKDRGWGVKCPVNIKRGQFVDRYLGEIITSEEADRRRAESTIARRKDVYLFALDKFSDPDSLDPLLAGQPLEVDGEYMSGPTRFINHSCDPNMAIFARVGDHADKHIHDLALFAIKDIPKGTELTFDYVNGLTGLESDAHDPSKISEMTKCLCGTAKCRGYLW

For `O=C(O)CN(CCN(CC(=O)O)CC(=O)O)CC(=O)O` [EDTA], the “zinc ions retained by the protein” value at DIM-5 [1] is around 2.9 zinc ions. The HKMT activity result on DIM-5 [2] (DIM-5 incubated with 20 mM EDTA for 2 days) is “no longer detectable”. In addition, the “DIM-5 activity after incubation with metal chelator” value at DIM-5 [2] is given as “inhibited its activity; also recorded: completely abolished”. Further, on DIM-5 [3], the AdoMet-binding entry is listed as “significantly reduced”.

In the case of `[Cl-].[Na+]` [NaCl], the “inhibition of DIM-5 activity” value at DIM-5 [2] (100 mM NaCl) is “about 95%”.

In the case of `c1cnc2c(c1)ccc1cccnc12` [phenanthroline, 1,10-phenanthroline], the “DIM-5 activity after incubation with metal chelator” value on DIM-5 [2] is recorded as “inhibited its activity”. In addition, the AdoMet-binding entry at DIM-5 [3] is reported as “significantly reduced”.
